Patent publication US11077214B2, “Multimodal CT/optical agents” (University Health Network, priority 2013, dated 2021)

Test: In vitro photostability of ICG fluorescence at room temperature
Assay type: physicochemical
Settings: 3 days at room temperature
Procedure: The size of the liposome samples was measured using dynamic light scattering (DLS) (90Plus, Brookhaven, Holtsville, N.Y.). The iodine and ICG concentrations were determined using an absorbance assay at a wavelength of 245 nm for iodine and 785 nm for ICG (Cary 50 UV/VIS Spectrophotometer, Varian Inc., Palo Alto, Calif.). The lipid components of the liposome sample was analyzed using ultra performance liquid chromatography (UPLC, ACQUITY, Waters, Milford, Mass.) equipped with an evaporative light scattering detector (ELSD). The in vitro fluorescence measurements were performed using a 2D fluorescence imager (excitation/emission: 735/820 nm, CRI Maestro, Perkin Elmer, Waltham, Mass.).
Free ICG diluted in water, a 1:10 ethanol/water mixture and a 0.5:10 iohexol/water mixture yielded only 8±2%, 3±1%, 7±2% of its original fluorescence, respectively. […] The photostability of the encapsulated ICG was investigated by incubating the liposome samples and the free ICG solutions (at 7 physiologically relevant concentrations ranging from 0.5 to 2.5 μg/mL) at room temperature over a 21-day period.

In the case of `CC1(C)C(/C=C/C=C/C=C/C=C2\N(CCCCS(=O)(=O)O)c3ccc4ccccc4c3C2(C)C)=[N+](CCCCS(=O)(=O)[O-])c2ccc3ccccc3c21` [Free ICG, indocyanine green], the “retained original fluorescence signal” value (diluted in 0.5:10 iohexol/water mixture) is reported as 7±2%, the “retained original fluorescence signal” value (diluted in 1:10 ethanol/water mixture) is reported as 3±1% and the “retained original fluorescence signal” value (diluted in water) is reported as 8±2%.
